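How tested: cells in 96-well plates exposed to compound for 48 hours at five concentrations. Abbreviation: GI50, concentration required for 50% inhibition of growth. The concentration for full growth arrest is given as TGI.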
Key:
Test in all cases: inhibition of tumour cell growth, NCI panel, 48 h
HCC-2998 colon = tested on: HCC-2998 colon
HCT-15 colon = tested on: HCT-15 colon
HL-60(TB) leukemia = tested on: HL-60(TB) leukemia
RPMI-8226 leukemia = tested on: RPMI-8226 leukemia
RXF 393 renal = tested on: RXF 393 renal
SNB-19 CNS = tested on: SNB-19 CNS
SR leukemia = tested on: SR leukemia
UACC-257 melanoma = tested on: UACC-257 melanoma
BT-549 breast = tested on: BT-549 breast
SK-MEL-28 melanoma = tested on: SK-MEL-28 melanoma

| SMILES | TGI (HCC-2998 colon) | TGI (HCT-15 colon) | TGI (HL-60(TB) leukemia) | TGI (RPMI-8226 leukemia) | TGI (RXF 393 renal) | TGI (SNB-19 CNS) | TGI (SR leukemia) | TGI (UACC-257 melanoma) | TGI (BT-549 breast) | TGI (SK-MEL-28 melanoma) | GI50 (HCC-2998 colon) | GI50 (HCT-15 colon) | GI50 (HL-60(TB) leukemia) | GI50 (RPMI-8226 leukemia) | GI50 (RXF 393 renal) | GI50 (SK-MEL-28 melanoma) | GI50 (SNB-19 CNS) | GI50 (SR leukemia) | GI50 (UACC-257 melanoma) |
| --- | --- | --- | --- | --- | --- | --- | --- | --- | --- | --- | --- | --- | --- | --- | --- | --- | --- | --- | --- |
| CCOC(=O)CNC(SC)=C(C#N)C#N | > 100 µM | > 100 µM | > 100 µM | > 100 µM | > 100 µM | > 100 µM | > 100 µM | > 100 µM |  |  |  |  |  |  |  |  |  |  |  |
| CC1(C)CCc2cc3c(cc2O1)OC(C)(C)C1c2c(ccc4c2CCC(C)(C)O4)OC31 (stereo unspecified) |  | > 100 µM | > 100 µM | > 100 µM |  |  | > 100 µM |  |  |  |  |  |  |  |  |  |  |  |  |
| COc1cc(C/C=C/c2ccccc2)c(OC)cc1O | 37.4 µM | 37.2 µM | 59.9 µM | 30.5 µM |  | > 100 µM |  | > 100 µM | 58.4 µM | 35.3 µM |  |  |  |  |  |  |  |  |  |
| Cn1cc2ccccc2c1-c1nc(F)nc(Oc2ccc3c(c2)CC[C@@H]2C3CC[C@]3(C)C(O)CCC23)n1 (stereo partly specified) | 36.4 µM | 33.4 µM |  |  | 72.3 µM | 34.7 µM |  | 36.3 µM |  | 33.2 µM |  |  |  |  |  |  |  |  |  |
| CCC[CH2][Sn]1([CH2]CCC)[O]C(=O)C[S]1 | 3.97 µM | 3.18 µM | 4.66 µM | 3.57 µM | 1.88 µM | 2.5 µM | 7.09 µM | 3.27 µM |  | 2.69 µM | 1.83 µM | 1.46 µM | 1.02 µM | 0.455 µM | 0.573 µM | 1.35 µM | 1.22 µM | 1.13 µM | 1.4 µM |
| CC(C)C(/C=C/c1ccccc1)=N\NC(=O)N/N=C(/C=C/c1ccccc1)C(C)C | > 100 µM | 80.9 µM | 45.9 µM | > 100 µM |  | > 100 µM | 87.2 µM | > 100 µM |  | > 100 µM |  |  |  |  |  |  |  |  |  |
| COc1ccc(CNc2nc3ccccc3nc2-c2cccs2)cc1OC | > 100 µM | > 100 µM | > 100 µM | > 100 µM | > 100 µM | > 100 µM | > 100 µM | > 100 µM |  | > 100 µM |  |  |  |  |  |  |  |  |  |
| O=C1C2Cc3ccccc3CN2C(=O)N1CN1CCN(CN2C(=O)C3Cc4ccccc4CN3C2=O)CC1 (stereo unspecified) | > 100 µM | > 100 µM | > 100 µM | > 100 µM | > 100 µM | > 100 µM |  | > 100 µM |  | > 100 µM |  |  |  |  |  |  |  |  |  |
| CC(=O)Nc1ccc(-c2nnc(SCC(=O)Nc3ccccc3[N+](=O)[O-])o2)cc1 |  | > 100 µM | > 100 µM | > 100 µM | > 100 µM |  | > 100 µM | > 100 µM |  | > 100 µM |  |  |  |  |  |  |  |  |  |
| O=C1c2cnccc2Cc2cccc3c2N1c1ccccc1S3 | 41 µM | > 100 µM | 67.1 µM | 88.1 µM | 65.3 µM | 74.6 µM | 34.8 µM | 59 µM |  | 78.2 µM |  |  |  |  |  |  |  |  |  |
| CC(C)O/C=C1\C(=O)C2(SCCS2)[C@H]2CCCC[C@@H]12 | > 100 µM | > 100 µM | 53.4 µM | 81 µM | 57.8 µM | > 100 µM | > 100 µM | > 100 µM |  | > 100 µM |  |  |  |  |  |  |  |  |  |
| COc1cc2ccc(CC#N)cc2cc1OC |  |  | > 100 µM |  | > 100 µM | > 100 µM | > 100 µM | > 100 µM |  | > 100 µM |  |  |  |  |  |  |  |  |  |
| O=C1c2c(c3c4ccccc4n4c3c3c2c2ccccc2n3C/C=C\C4)C(=O)N1Cc1ccccc1 | > 100 µM | > 100 µM | > 100 µM | > 100 µM | > 100 µM | > 100 µM | > 100 µM | > 100 µM |  | > 100 µM |  |  |  |  |  |  |  |  |  |
| O=C(N/C(=C\c1ccc([N+](=O)[O-])cc1)c1nc2[nH]c(=S)[nH]c(=O)c2[nH]1)c1ccccc1 | > 100 µM | > 100 µM |  |  | > 100 µM | > 100 µM | > 100 µM |  |  | > 100 µM |  |  |  |  |  |  |  |  |  |
| O=C1Cc2ccccc2N1/N=C\c1ccc(O)cc1 | > 100 µM | > 100 µM |  | > 100 µM |  | > 100 µM |  | > 100 µM |  | > 100 µM |  |  |  |  |  |  |  |  |  |
| COC1=NN2C(OC)(c3ccccc3)c3c(-c4ccccc4)sc(-c4ccccc4)c3C2(c2ccccc2)S1 (stereo unspecified) | > 100 µM | > 100 µM | > 100 µM |  |  | > 100 µM | > 100 µM | > 100 µM |  | > 100 µM |  |  |  |  |  |  |  |  |  |
| CC1SC2=NC3=C(c4ccccc4C3=O)C(c3ccc(Br)cc3)N2C1=O (stereo unspecified) | > 100 µM | > 100 µM | 62.8 µM | > 100 µM |  | > 100 µM |  | > 100 µM |  | > 100 µM |  |  |  |  |  |  |  |  |  |
| CCOC(=O)c1c(-c2[nH]c(C(=O)OCc3ccccc3)c(C)c2C(=O)OCC)[nH]c(C(=O)OCc2ccccc2)c1C | > 100 µM | > 100 µM |  | > 100 µM | 86.2 µM |  | > 100 µM |  |  | > 100 µM |  |  |  |  |  |  |  |  |  |

Source: PubChem BioAssay (NCI)
